For one data set, the system named is Mammalian Vero cells. Kind of data set: Cytotoxicity test on Vero cells (resazurin). Type of data set: cell-based. Particulars: Chlorocebus sabaeus, Table 1, Vero cells, 48 h + 24 h resazurin, read-out: Toxicity IC50 Vero Cell. How it is done: Mammalian Vero cells (EACC No. 84113001), cultured as previously reported, were used to determine the cytotoxicity of the tested compounds [56]. In short, 1.25 × 10^4 Vero cells·mL^−1 were treated by adding the compounds at a concentration range from 400 to 1 µM in 96-well microplates (200 µL·well^−1) at 37 °C for 48 h. Subsequently, resazurin sodium salt (Sigma-Aldrich) was added to be incubated for further 24 h. Finally, cell viability was determined following the same procedure as described to assess the trypanocidal activity in the epimastigotes. Each compound concentration was tested in triplicate in three independent experiments.
A general note: Resazurin is reduced to fluorescent resorufin, in cell work by metabolically active cells.

Data set [1] concerns Trypanosoma cruzi intracellular amastigotes. Kind of data set: Screening against intracellular amastigotes in Vero cells (Giemsa counting). Type of data set: cell-based. Particulars: for IC50: Trypanosoma cruzi, Table 1, intracellular amastigotes in Vero cells, 72 h, read-out: Activity IC50 Amast. How it is done:
(§1) Trypanocidal activity against amastigotes was determined according to the literature reported previously. […]. […] Each compound concentration was tested in triplicate in four separate determinations.

The subject of data set [2] is Trypanosoma cruzi bloodstream trypomastigotes (BTs). The data set can be described thus: Screening against bloodstream trypomastigotes (resazurin). In kind it is cell-based. Particulars: for IC50: Trypanosoma cruzi, Table 1, bloodstream trypomastigotes, 24 h treatment + 4 h resazurin, read-out: Activity IC50 Trypomast. The procedure:
2 × 10^6 Bloodstream trypomastigotes (BTs), obtained by cardiac puncture from infected BALB/c mice as previously described, were treated by adding the tested compounds at a concentration range from 50 to 0.1 µM in 96-well microplates (200 µL·well^−1) at 37 °C. After 24 h of treatment, resazurin sodium salt (Sigma-Aldrich) was added to be incubated for further 4 h. Finally, trypanocidal activity was determined following the same procedure as described to assess the trypanocidal activity in the epimastigotes. Each compound concentration was tested in triplicate in three independent experiments.

Data set [3] concerns Trypanosoma cruzi. The data set can be described thus: Parasitemia monitoring in infected BALB/c mice, acute Chagas disease. Type of data set: in vivo. Particulars: oral 20 mg/kg per day for 5 days from 9th dpi, versus untreated. The procedure:
(§2) Infection was carried out by intraperitoneal inoculation of 5 × 10^5 BTs of T. cruzi per mouse in 0.2 mL PBS [56]. The mice were treated by oral route (~200 µL) once daily for 5 consecutive days. The treatment for mice treated in the acute and chronic phases began when the infection was confirmed (9th day post-infection (dpi)) and was established that the animals had entered the chronic phase (100th dpi), respectively.
(§3) The mice were divided into six groups (n = 3 per group): 0, negative control group (uninfected and untreated mice); I, positive control group (infected and untreated mice); II, BZN group (mice infected and treated with BZN); III, 8 group (mice infected and treated with 8); IV, 10 group (mice infected and treated with 10); V, 15 group (mice infected and treated with 15). The tested compounds and BZN were prepared at 2 mg·mL^−1 in an aqueous suspension vehicle containing 5% (v/v) DMSO and 0.5% (w/v) hydroxypropyl methylcellulose, as previously reported. Therefore, doses of 20 mg·kg^−1 per day were administered for 5 consecutive days, and vehicle only was administered in the negative and positive control groups.
(§4) All in vivo assays for the evaluation of compounds in the acute and chronic CD (Scheme 1)—monitoring of parasitemia, immunosuppression, PCR [59, 60], ELISA [56], and clinical analysis [56]—were performed as previously described. PCR was based on the Spliced Leader (SL) intergenic region sequence of T. cruzi (for detailed description, see literature reported previously).

The test system of data set [4] is Trypanosoma cruzi. The data set can be described thus: Parasitemia reactivation after immunosuppression in BALB/c mice. In kind it is in vivo. Particulars: 20 mg/kg per day for 5 days; for reactivation of infection after immunosuppression: compared to untreated mice. The procedure:
Secondly, the experimental cure was determined using a double checking widely used in in vivo trypanocidal trials. This double checking—based on immunosuppression and PCR (Figure 2B,C, respectively)—was performed to evaluate the treatment effectiveness and the disease extent in both acute and chronic CD at the end of the in vivo timeline. The mice whose parasitemia and PCR remain negative after immunosuppression are considered cured.
Immunosuppression enhances the reactivation of any residual infection, which is proportional to the parasite survival rate.
as §2, §3, §4

In data set [5] the test system is Trypanosoma cruzi. The data set can be described thus: PCR of seven organs/tissues of treated BALB/c mice (Spliced Leader sequence). Type of data set: in vivo. The procedure:
To assess the efficacy of potential candidates by confirming the absence of infection in the target locations, PCR was carried out at the end of the in vivo timeline (Figure 2C). PCR was positive in seven organs/tissues for the untreated (control) mice groups in both phases, showing the presence of the typical nested amastigotes of the chronic CD.
as §2, §3, §4
Figure 2 (A) Parasitemia profiles of each group of mice infected with Trypanosoma cruzi and treated during the acute Chagas disease over a period of 55 days: control (untreated), benznidazole (BZN), 8, 10 and 15. Treatment days are represented in grey. […]. (B) Parasitemia reactivation by fresh blood in the chronic Chagas disease after the immunosuppression cycles for each group of mice treated during the acute and chronic phases of the disease: control (untreated), benznidazole (BZN), 8, 10, and 15. […]. (C) PCR analysis of seven organs/tissues with the Trypanosoma cruzi Spliced Leader (SL) intergenic region sequence in the chronic Chagas disease for each group of mice treated during the acute and chronic phases of the disease: (a) control (untreated), (b) benznidazole, (c) 8, (d) 10, and (e) 15.

Data set [6] concerns Trypanosoma cruzi. The data set can be described thus: Anti-T. cruzi IgG (ELISA) and splenomegaly in treated BALB/c mice. In kind it is in vivo. Particulars: treated BALB/c mice versus untreated; excluding IgG levels of chronic CD. The procedure: Otherwise, the immune status of the mice was evaluated—through the titer of total anti-T. cruzi IgG and the splenomegaly (Figure S1)—since it is a characteristic linked to the parasite load and the effectiveness ascribed to the potential candidates. […].
as §4
Figure S1. A) Anti-Trypanosoma cruzi immunoglobulin G levels, expressed in absorbance at 492 nm, at different days post-infection (dpi) for each group of mice treated during the acute and chronic phases of Chagas disease: control (untreated), benznidazole (BZN), 8, 10 and 15. Blank and uninfected mice are also […]
included. […] Values are the means of three mice ± standard deviation. (IS) immunosuppression. * Significant differences between untreated and treated mice for α =
0.05. B) Weight percentage of spleens in the chronic Chagas disease for each group of mice treated during the acute and chronic phases of the disease: control (untreated), benznidazole (BZN), 8, 10 and 15. Values are the means of three mice ± standard deviation. In brackets: reduction of splenomegaly in comparison to […]
(§5) (1 picture or pasted object on this page, not shown here)
For orientation: An ELISA detects its analyte on a solid surface through an enzyme-linked reagent.

The format of data set [7] is in vivo. Particulars: BALB/c mice, 20 mg/kg per day for 5 days. The procedure: Finally, biochemical analyses were performed to assess the toxicity associated to the treatment of compound 8. Kidney, heart and liver biochemical markers were measured, including values from uninfected and BZN-treated mice (Table S2). […] The low toxicity allows compound 8 to be tested at higher doses, establishing an improved treatment schedule based on pharmacokinetics in order to reach a total parasite clearance.
as §4

Data set [8] concerns epimastigotes of Trypanosoma cruzi. Kind of data set: Flow cytometry of nucleic acid levels (acridine orange). Particulars: IC25 concentrations, 72 h. Type of data set: cell-based. How it is done:
The untreated and treated epimastigotes of T. cruzi described in the NMR analysis were collected by centrifugation, washed three times in PBS and stained with […] rhodamine 123 (Rho) (Sigma-Aldrich) or acridine orange (AO) (Sigma-Aldrich) dyes in 0.5 mL PBS for 20 min at 28 °C [63]. Control epimastigotes with a fully depolarized mitochondrion were obtained by incubation for 40 min with 10 mM KCN prior to Rho loading. Non-stained parasites were also included. After elapsed time, epimastigotes were immediately processed and analyzed by flow cytometry as previously reported.
Figure S2. Nucleic acids levels of Trypanosoma cruzi exposed to benznidazole (BZN) and compounds at […]
Inhibition, in percentage, in the nucleic acids levels with respect to untntreated parasites. Values constitute means of three separate determinations ± standard deviation. Significant differences between untreated and treated parasites for α = 0.05.
as §5
Background: In flow cytometry, cells or beads pass a laser one at a time.

The test system of data set [9] is epimastigotes of T. cruzi Arequipa strain. The data set can be described thus: Screening against extracellular epimastigotes (resazurin). Type of data set: cell-based, Trypanosoma cruzi. Particulars: for IC50: Trypanosoma cruzi. How it is done: Trypanocidal activity against epimastigotes of T. cruzi Arequipa strain (MHOM/Pe/2011/Arequipa, discrete typing unit V) was tested as previously described. In short, 5 × 10^5 epimastigotes·mL^−1 were treated by adding the tested compounds at a concentration range from 100 to 0.2 µM in 96-well microplates (200 µL·well^−1) for 48 h. Subsequently, resazurin sodium salt (Sigma-Aldrich) was added to be incubated for further 24 h. Finally, the absorbance was measured, and the trypanocidal activity was expressed as the IC50 (inhibitory concentration 50) using GraphPad Prism 6 software. Each compound concentration was tested in triplicate in three independent experiments.

For data set [10], the system named is Trypanosoma cruzi amastigotes in Vero cells. The data set can be described thus: Infection rate and amastigotes per Vero cell over 10 days. Type of data set: cell-based. Particulars: IC25 concentrations, measured at 2 days intervals for 10 days. The procedure:
Before going ahead on in vivo trials, the in vitro infection rate and the average number of amastigotes per Vero cell were also measured at 2 days intervals for 10 days after treating the infected cultures with BZN and potential candidates (8, 10, and 15) (Figure 1) at ICH25 concentrations resulting from amastigotes screening. […]. Fast-acting drugs are urgently needed, and this feature is an additional advantage since they can eliminate the parasite in a few doses.
as §1
Figure 1 (A) Percentage of infected Vero cells and (B) number of amastigotes of Trypanosoma cruzi per Vero cell exposed to benznidazole (BZN), 8, 10 and 15. Values constitute means of three separate determinations ± standard deviation. * Significant differences between untreated and treated parasites for α = 0.05. dpi, days post-infection.

Data set [11] relates to epimastigotes of T. cruzi Arequipa. The data set can be described thus: 1H NMR analysis of excreted metabolites. In kind it is cell-based, Trypanosoma cruzi. Particulars: IC25 concentrations, 72 h. The procedure:
5 × 10^5 epimastigotes·mL^−1 of T. cruzi Arequipa were treated by adding the tested compounds at IC25 concentrations in 25 cm^2 cell culture flasks at 28 °C for 72 h. Untreated controls were also included. Cultures were then centrifuged and filtered, and the metabolites of the supernatants were analyzed using a ^1H NMR spectrometer (VARIAN DIRECT DRIVE 500 MHz […]) with AutoX probe, D2O as solvent and 2,2-dimethyl-2-silapentane-5-sulphonate as the reference signal. Chemical shifts were expressed in parts per million (ppm), and analyses were conducted as previously reported.

The test system of the next data set is Trypanosoma cruzi Fe-SOD. The data set can be described thus: SOD enzymatic inhibition, Fe-SOD. In kind it is biochemical. Particulars: 100 to 0.1 µM. How it is done: (§6) Excreted Fe-SOD protein—obtained and quantified as previously described [64]—and commercial Cu/Zn-SOD from human erythrocytes (Sigma-Aldrich) were exposed to the tested compounds at a concentration range from 100 to 0.1 µM to determine in vitro activities using the method previously described.

Data set [12] addresses T1, human erythrocytes CuZn-SOD (Homo sapiens, UniProt P00441).
T1 construct: commercial Cu/Zn-SOD from human erythrocytes (Sigma-Aldrich); purchased Sigma-Aldrich; host or cells: human erythrocytes
The data set can be described thus: SOD enzymatic inhibition, CuZn-SOD. Type of data set: biochemical. Particulars: 100 to 0.1 µM, read-out: CuZn-SOD IC50 (in brackets). How it is done:
as §6

Two compounds from publication PMC8147293, “Library of Selenocyanate and Diselenide Derivatives as In Vivo Antichagasic Compounds Targeting Trypanosoma cruzi Mitochondrion” (Pharmaceuticals, 2021) can be followed below.

Molecules are shown by their SMILES. Like-named read-outs stand apart in the source and are kept apart here.

For orientation: IC50 means the concentration that inhibits the measured activity by half.

T1 sequence (P00441 whole entry): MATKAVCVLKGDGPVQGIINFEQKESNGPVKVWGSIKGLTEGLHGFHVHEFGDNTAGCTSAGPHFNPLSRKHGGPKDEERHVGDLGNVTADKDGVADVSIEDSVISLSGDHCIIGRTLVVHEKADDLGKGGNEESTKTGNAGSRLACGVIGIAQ

For `O=C(Cn1ccnc1[N+](=O)[O-])NCc1ccccc1` [BZN, benznidazole, reference compound], the IC50 was found to be 80.4 ± 7.1 µM in the data set on Mammalian Vero cells, 8.3 ± 0.7 µM in [1] and 12.4 ± 1.1 µM in data set [2]. The “parasitemia levels (counting BTs) during the acute CD” value in the data set on Trypanosoma cruzi [3] is listed as “remarkable parasitemia reduction”. Further, the entries for the “reactivation of infection after immunosuppression” value in the data set with Trypanosoma cruzi [4] (mice treated in acute CD) and with Trypanosoma cruzi [4] (mice treated in chronic CD) were 81% and 68%, respectively. The “negative PCR (parasite-free locations)” value in the data set on Trypanosoma cruzi [5] (mice treated in acute CD) is 2/7; with Trypanosoma cruzi [5] (mice treated in chronic CD) it was 3/7. For the same compound, the “total anti-T. cruzi IgG levels and splenomegaly” value in the data set on Trypanosoma cruzi [6] was “significant reduction”. Also, in data set [7], the “kidney, heart and liver biochemical markers” value is “disturbed 2 days after treatment”. In addition, the “reduction in nucleic acid levels with respect to untreated parasites” value in data set [8] is 22.4%.

For `N#C[Se]Cc1ccccc1[N+](=O)[O-]` [compound 15], the “Selectivity Index Epimast.” value in [9] (IC50 Vero cells/IC50 epimastigotes) was 20. Further, the half-inhibitory concentration (IC50) in data set [9] (Table 1, T. cruzi epimastigotes, 48 h treatment + 24 h resazurin, read-out: Activity IC50 Epimast.) is 0.9 ± 0.1 µM; in data set [9] (Table S1, cultured epimastigote form of T. cruzi, read-out: Activity IC50) it was no more than 10 µM; in [1] it was 0.5 µM; in data set [2], 1.3 ± 0.3 µM; in data set [12] it was greater than 100 µM. In addition, the CC50 in the data set with Mammalian Vero cells (72 h) came out at 17.9 ± 1 µM. In addition, in [1] (IC50 Vero cells/IC50 amastigotes), the “Selectivity Index Amast.” value was 36. Besides, the “Selectivity Index Trypomast.” value in data set [2] (IC50 Vero cells/IC50 trypomastigotes) turned out to be 14. Moreover, the “infection rate and average number of amastigotes per Vero cell” value in data set [10] was “decrease in both infection rate and number of amastigotes per cell in a time-dependent manner”. In the data set with Trypanosoma cruzi [3], the “parasitemia levels (counting BTs) during the acute CD” value is “non-significant differences”. Also, the “reactivation of infection after immunosuppression (in words)” value in the data set with Trypanosoma cruzi [4] (acute and chronic CD) was “non-significant differences”. Further, in the data set on Trypanosoma cruzi [6], the “total anti-T. cruzi IgG levels and splenomegaly” value is listed as “Slight or non-significant reductions”. The “excretion of metabolites versus untreated parasites (in words)” value in data set [11] was “strikingly increased”. For the same compound, in the data set with Trypanosoma cruzi Fe-SOD, the “SOD inhibitory activity (in words)” value is “no inhibitory activity”.
